Assay results taken from patent publication US9090576B2, “2-substituted-p-quinone derivatives for treatment of oxidative stress diseases” (Edison Pharmaceuticals, Inc., priority 2008, dated 2015).

Key:
Type in all cases: cell-based
[1] = system: human dermal fibroblasts from Huntington's patients; assay: Rescue of BSO-stressed fibroblasts from Huntington's patients (screen as Example A); details: Fibroblast, BSO-stressed Huntington's fibroblasts (GM 04281), less than about 150 nM, read-out: EC50, protection against Huntington's
Outline: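 Coriell Huntington's line GM 04281 plated at 3,000 cells/well and attached overnight at 37 °C. Survival was read by Calcein AM (1.2 μM, 50-70 min, RT) fluorescence at 485/525 nm, giving EC50.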

[2] = system: human dermal fibroblasts from Parkinson's Disease patients; assay: Rescue of BSO-stressed fibroblasts from Parkinson's Disease patients (screen as Example A); details: Fibroblast, BSO-stressed Parkinson's Disease fibroblasts (AG20439), less than about 150 nM, read-out: EC50, protection against PD
Outline: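 Dermal fibroblasts from a Parkinson's Disease patient (Coriell AG20439) were plated at 3,000 cells/well, attached overnight and pre-incubated overnight with serially diluted compounds (150 μM master solution). Survival was read by 1.2 μM calcein AM (50–70 min, RT, 485/525 nm fluorescence) and converted to EC50.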

[3] = system: human dermal fibroblasts from CoQ10 deficient patients; assay: Rescue of BSO-stressed fibroblasts from CoQ10 deficient patients (screen similar to Example A); details: Fibroblast, BSO-stressed fibroblasts from CoQ10 deficient patients harboring a CoQ2 mutation, less than about 150 nM, read-out: EC50, protection against CoQ10 deficiency
Protocol: A culture with FRDA fibroblasts was started from a 1 ml vial with approximately 500,000 cells stored in liquid nitrogen. Cells were propagated in 10 cm cell culture dishes by splitting every third day in a ratio of 1:3 until nine plates were available. Once confluent, fibroblasts were harvested. For 54 micro titer plates (96 well-MTP) a total of 14.3 million cells (passage eight) were re-suspended in 480 ml medium, corresponding to 100 μl medium with 3,000 cells/well. The remaining cells were distributed in 10 cm cell culture plates (500,000 cells/plate) for propagation. The plates were incubated overnight at 37° C. in an atmosphere with 95% humidity and 5% CO2 to allow attachment of the cells to the culture plate.
MTP medium (243 μl) was added to a well of the microtiter plate. The test compounds were unfrozen, and 7.5 μl of a 5 mM stock solution was dissolved in the well containing 243 μl medium, resulting in a 150 μM master solution. Serial dilutions from the master solution were made. The period between the single dilution steps was kept as short as possible (generally less than 1 second).
Plates were kept overnight in the cell culture incubator. The next day, 10 μl of a 10 mM BSO solution were added to the wells, resulting in a 1 mM final BSO concentration. Forty-eight hours later, three plates were examined under a phase-contrast microscope to verify that the cells in the 0% control (wells E1-H1) were clearly dead. The medium from all plates was discarded, and the remaining liquid was removed by gently tapping the plate inversed onto a paper towel.
100 μl of PBS containing 1.2 μM Calcein AM were then added to each well. The plates were incubated for 50-70 minutes at room temperature. After that time the PBS was discarded, the plate gently tapped on a paper towel and fluorescence (excitation/emission wavelengths of 485 nm and 525 nm, respectively) was read on a Gemini fluorescence reader. Data was imported into Microsoft Excel (EXCEL is a registered trademark of Microsoft Corporation for a spreadsheet program) and used to calculate the EC50 concentration for each compound.
Compounds of the invention were tested using a screen similar to the one described in Example A, but substituting FRDA cells with cells obtained from CoQ10 deficient patients harboring a CoQ2 mutation. The compounds were tested for their ability to rescue human dermal fibroblasts from CoQ10 deficient patients from oxidative stress.

[4] = system: human dermal fibroblasts from LHON patients; assay: Rescue of BSO-stressed fibroblasts from LHON patients (screen as Example A); details: Fibroblast, BSO-stressed LHON fibroblasts (GM03858), less than about 150 nM, read-out: EC50, protection against LHON
Outline: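 LHON patient fibroblasts (Coriell GM03858) at 3,000 cells/well were pre-treated overnight with compounds serially diluted from a 150 μM master solution. Surviving cells were stained with 1.2 μM Calcein AM for 50-70 min at RT and read by fluorescence (485/525 nm), giving EC50.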

[5] = system: Human dermal fibroblasts from Friedreich's Ataxia patients; assay: Rescue of BSO-stressed FRDA fibroblasts (Calcein AM viability); details: BSO-stressed FRDA fibroblasts (GM04078), less than about 150 nM, read-out: EC50, protection against FRDA
Outline: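 Patient FRDA fibroblasts (GM04078) seeded at 3,000 cells/well, given serially diluted compound from a 150 μM master solution, then stressed next day with 1 mM BSO.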

Measured: EC50

CC1=C(C)C(=O)C(CCCC(=O)Nc2ccc3c(c2)OCO3)=C(C)C1=O [N-(benzo[d][1,3]dioxol-5-yl)-4-(2,4,5-trimethyl-3,6-dioxocyclohexa-1,4-dienyl)butanamide]
< 150 nM: all assays above

CC1=C(C)C(=O)C(CCCC(=O)N(C)Cc2ccccc2)=C(C)C1=O [N-benzyl-N-methyl-4-(2,4,5-trimethyl-3,6-dioxocyclohexa-1,4-dienyl)butanamide]
< 150 nM: all assays above

CC1=C(C)C(=O)C(CCCC(=O)NCc2ccc(F)cc2)=C(C)C1=O [N-(4-fluorobenzyl)-4-(2,4,5-trimethyl-3,6-dioxocyclohexa-1,4-dienyl)butanamide]
< 150 nM: all assays above

CC1=C(C)C(=O)C(CCCC(=O)NCCc2ccccc2F)=C(C)C1=O [N-(2-fluorophenethyl)-4-(2,4,5-trimethyl-3,6-dioxocyclohexa-1,4-dienyl)butanamide]
< 150 nM: all assays above

CC1=C(C)C(=O)C(CCCC(=O)N2CCc3ccccc32)=C(C)C1=O [2-(4-(indolin-1-yl)-4-oxobutyl)-3,5,6-trimethylcyclohexa-2,5-diene-1,4-dione]
< 150 nM: all assays above

CC1=C(C)C(=O)C(CCCC(=O)Nc2ccccc2Cl)=C(C)C1=O [N-(2-chlorophenyl)-4-(2,4,5-trimethyl-3,6-dioxocyclohexa-1,4-dienyl)butanamide]
< 150 nM: all assays above

CC1=C(C)C(=O)C(CCCC(=O)Nc2ccc(F)cc2)=C(C)C1=O [N-(4-fluorophenyl)-4-(2,4,5-trimethyl-3,6-dioxocyclohexa-1,4-dienyl)butanamide]
< 150 nM: all assays above

CC1=C(C)C(=O)C(CCCC(=O)NCCc2ccc(Cl)cc2)=C(C)C1=O [N-(4-chlorophenethyl)-4-(2,4,5-trimethyl-3,6-dioxocyclohexa-1,4-dienyl)butanamide]
< 150 nM: all assays above

CC1=C(C)C(=O)C(CCCC(=O)NCCc2ccccc2Cl)=C(C)C1=O [N-(2-chlorophenethyl)-4-(2,4,5-trimethyl-3,6-dioxocyclohexa-1,4-dienyl)butanamide]
< 150 nM: all assays above

CC1=C(C)C(=O)C(CCCC(=O)N2Cc3ccccc3C2)=C(C)C1=O [2-(4-(isoindolin-2-yl)-4-oxobutyl)-3,5,6-trimethylcyclohexa-2,5-diene-1,4-dione]
< 150 nM: all assays above

CC1=C(C)C(=O)C(CCCC(=O)N(C)c2ccc(F)cc2)=C(C)C1=O [N-(4-fluorophenyl)-N-methyl-4-(2,4,5-trimethyl-3,6-dioxocyclohexa-1,4-dienyl)butanamide]
< 150 nM: all assays above

CCN(Cc1ccccc1)C(=O)CCCC1=C(C)C(=O)C(C)=C(C)C1=O [N-benzyl-N-ethyl-4-(2,4,5-trimethyl-3,6-dioxocyclohexa-1,4-dienyl)butanamide]
< 150 nM: all assays above

CC1=C(C)C(=O)C(CCCC(=O)NCCc2ccc(F)cc2)=C(C)C1=O [N-(4-fluorophenethyl)-4-(2,4,5-trimethyl-3,6-dioxocyclohexa-1,4-dienyl)butanamide]
< 150 nM: all assays above

CC1=C(C)C(=O)C(CCCC(=O)Nc2ccc(C(F)(F)F)cc2)=C(C)C1=O [N-(4-(trifluoromethyl)phenyl)-4-(2,4,5-trimethyl-3,6-dioxocyclohexa-1,4-dienyl)butanamide]
< 150 nM: all assays above

CC1=C(C)C(=O)C(CCCC(=O)Nc2cccc(Cl)c2)=C(C)C1=O [N-(3-chlorophenyl)-4-(2,4,5-trimethyl-3,6-dioxocyclohexa-1,4-dienyl)butanamide]
< 150 nM: all assays above

CC1=C(C)C(=O)C(CCCC(N)=O)=C(C)C1=O [4-(2,4,5-trimethyl-3,6-dioxocyclohexa-1,4-dienyl)butanamide]
< 150 nM: all assays above

CC1=C(C)C(=O)C(CCCC(=O)N(C)c2ccccc2)=C(C)C1=O [N-methyl-N-phenyl-4-(2,4,5-trimethyl-3,6-dioxocyclohexa-1,4-dienyl)butanamide]
< 150 nM: all assays above
